Assays:
[1] = target: T1, human α1a adrenergic receptor (Homo sapiens, UniProt P35348); assay: Radioligand binding ([3H]prazosin) at cloned human α1a adrenergic receptor; conditions: LM(tk-) cell membranes, read-out: Binding affinities (pKi) α1a (converted)
T1 construct: The entire coding region of α1a (1401 bp); expressed in transfected cells
T1 sequence (P35348 1-466): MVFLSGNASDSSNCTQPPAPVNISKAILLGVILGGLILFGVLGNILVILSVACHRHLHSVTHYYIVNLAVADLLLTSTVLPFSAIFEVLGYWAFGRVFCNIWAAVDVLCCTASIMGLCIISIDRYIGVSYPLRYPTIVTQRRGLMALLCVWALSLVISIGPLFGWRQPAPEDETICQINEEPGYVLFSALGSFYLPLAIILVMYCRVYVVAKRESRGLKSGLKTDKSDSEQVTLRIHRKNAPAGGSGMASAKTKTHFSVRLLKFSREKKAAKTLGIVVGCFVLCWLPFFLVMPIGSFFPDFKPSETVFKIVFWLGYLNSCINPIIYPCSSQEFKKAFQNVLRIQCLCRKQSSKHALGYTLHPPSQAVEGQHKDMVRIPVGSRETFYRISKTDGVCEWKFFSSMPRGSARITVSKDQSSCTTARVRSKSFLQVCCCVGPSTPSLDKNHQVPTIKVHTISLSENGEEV
Method: (§1) First, conditions were determined which allowed measurement of the specific binding of a compound known to bind to the receptor. Then, the binding of the known compound to the receptor in membrane preparations was evaluated in the presence of several different concentrations of the test compound.
(§2) These cell lines were prepared by transfecting the cloned cDNA or cloned genomic DNA or constructs containing both genomic DNA and cDNA encoding the human receptors as described below.
The construct involved ligating three partial overlapping fragments: a 5′0.6 kb HincII genomic clone, a central 1.8 EcoRI hippocampal cDNA clone, and a 3′0.6 Kb PstI genomic clone. The hippocampal cDNA fragment overlaps with the 5′ and 3′ genomic clones so that the HincII and PstI sites at the 5′ and 3′ ends of the cDNA clone, respectively, were utilized for ligation. This full-length clone was cloned into the KpnI site of the expression vector, using the 5′ and 3′ KpnI sites of the fragment, derived from vector (i.e., pBluescript) and 3′-untranslated sequences, respectively. Stable cell lines were selected as described above. Membranes were harvested and assayed for their ability to bind [^3H]prazosin as described below (see Radioligand Binding assays).
(§3) Radioligand Binding Assays for α1 Human Adrenergic Receptors: Transfected cells from culture flasks were scraped into 5 ml of 5 mM Tris-HCl, 5 mM EDTA, pH 7.5, and lysed by sonication. The cell lysates were centrifuged at 1000 rpm for 5 min at 4° C., and the supernatant was centrifuged at 30,000×g for 20 min at 4° C. The pellet was suspended in 50 mM Tris-HCl, 1 mM MgCl2, and 0.1% ascorbic acid at pH 7.5. Binding of the α1, antagonist [^3H]prazosin (0.5 nM, specific activity 76.2 Ci/mmol) to membrane preparations of LM(tk-) cells was done in a final volume of 0.25 ml and incubated at 37° C. for 1 hour. Nonspecific binding was determined in the presence of 10 μM phentolamine. The reaction was stopped by filtration through GF/B filters using a cell harvester.

[2] = target: T2, human α1d adrenergic receptor (Homo sapiens, UniProt P25100); assay: Radioligand binding ([3H]prazosin) at cloned human α1d adrenergic receptor; conditions: LM(tk-) cell membranes, read-out: Binding affinities (pKi) α1d (converted)
T2 construct: The entire coding region. of α1d (1719 bp); expressed in transfected cells
T2 sequence (P25100 1-572): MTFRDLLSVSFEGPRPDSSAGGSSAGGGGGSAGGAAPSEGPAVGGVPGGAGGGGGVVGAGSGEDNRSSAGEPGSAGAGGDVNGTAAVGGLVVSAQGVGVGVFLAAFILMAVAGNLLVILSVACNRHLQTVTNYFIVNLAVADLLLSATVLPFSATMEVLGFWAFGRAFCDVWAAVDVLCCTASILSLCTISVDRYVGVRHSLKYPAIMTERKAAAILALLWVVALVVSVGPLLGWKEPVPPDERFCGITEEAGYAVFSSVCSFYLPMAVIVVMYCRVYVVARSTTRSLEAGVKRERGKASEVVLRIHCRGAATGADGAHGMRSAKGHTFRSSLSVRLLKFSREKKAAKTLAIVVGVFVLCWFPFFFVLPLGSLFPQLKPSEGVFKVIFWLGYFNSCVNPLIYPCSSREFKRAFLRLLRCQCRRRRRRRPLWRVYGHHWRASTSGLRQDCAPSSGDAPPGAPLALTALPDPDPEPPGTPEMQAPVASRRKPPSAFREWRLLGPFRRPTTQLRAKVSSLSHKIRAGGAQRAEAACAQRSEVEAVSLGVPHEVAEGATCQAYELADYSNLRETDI
Method: as §1, §2
α1d Human Adrenergic Receptor: The entire coding region. of α1d (1719 bp), including 150 base pairs of 5′ untranslated sequence (5′ UT) and 300 bp of 3′ untranslated sequence (3′ UT), was cloned into the BamHI and ClaI sites of the polylinker-modified eukaryotic expression vector pCEXV-3, called EXJ.HR. The construct involved the ligation of partial overlapping human lymphocyte genomic and hippocampal cDNA clones: 5′ sequence were contained on a 1.2 kb SmaI-XhoI genomic fragment (the vector-derived BamHI site was used for subcloning instead of the internal insert-derived SmaI site) and 3′ sequences were contained on a 1.3 kb XhoI-ClaI cDNA fragment (the ClaI site was from the vector polylinker). Stable cell lines were obtained by cotransfection with the plasmid α1A/EXJ (expression vector containing the α1a receptor gene (old nomenclature)) and the plasmid pGCcos3neo (plasmid containing the aminoglycoside transferase gene) into LM(tk-) cells using the calcium phosphate technique. The cells were grown, in a controlled environment (37° C., 5% CO2), as monolayers in Dulbecco's modified Eagle's Medium (GIBCO, Grand Island, N.Y.) containing 25 mM glucose and supplemented with 10% bovine calf serum, 100 units/ml penicillin g, and 100 μg/ml streptomycin sulfate. Stable clones were then selected for resistance to the antibiotic G-418 (1 mg/ml), and membranes were harvested and assayed for their ability to bind [^3H]prazosin as described below (see Radioligand Binding assays).
The cell line expressing the human α1d receptor used herein was designated L-α1A (old nomenclature) and was deposited with the American Type Culture Collection, 12301 Parklawn Drive, Rockville, Md. 20852, U.S.A. under the provisions of the Budapest Treaty for the International Recognition of the Deposit of Microorganisms for the Purposes of Patent Procedure. The cell line expressing the human α1d receptor, was accorded ATCC Accession No. CRL 11138, and was deposited on Sep. 25, 1992.
as §3

[3] = test system: urethane-anesthetized rats; assay: Blood pressure in urethane-anesthetized, normotensive rats; assay type: in vivo, rat
Method: Rats were anesthetized with urethane and PE50 cannulae were placed in the femoral artery and vein for blood pressure monitoring and drug administration, respectively. After stabilization, rats were administered 200 μl saline vehicle or increasing doses of BMY 7378 or Compound 7 at 10 minutes intervals until the reduction in blood pressure reached a plateau. The 5-HT1A-selective antagonist WAY 100635 (1 mg/kg) was then administered and blood pressure monitored for an additional 10 minutes.

[4] = target: T3, human α1b adrenergic receptor (Homo sapiens, UniProt P35368); assay: Radioligand binding ([3H]prazosin) at cloned human α1b adrenergic receptor; conditions: LM(tk-) cell membranes, read-out: Binding affinities (pKi) α1b (converted)
T3 construct: The entire coding region of α1b (1563 bp); expressed in transfected cells
T3 sequence (P35368 1-520): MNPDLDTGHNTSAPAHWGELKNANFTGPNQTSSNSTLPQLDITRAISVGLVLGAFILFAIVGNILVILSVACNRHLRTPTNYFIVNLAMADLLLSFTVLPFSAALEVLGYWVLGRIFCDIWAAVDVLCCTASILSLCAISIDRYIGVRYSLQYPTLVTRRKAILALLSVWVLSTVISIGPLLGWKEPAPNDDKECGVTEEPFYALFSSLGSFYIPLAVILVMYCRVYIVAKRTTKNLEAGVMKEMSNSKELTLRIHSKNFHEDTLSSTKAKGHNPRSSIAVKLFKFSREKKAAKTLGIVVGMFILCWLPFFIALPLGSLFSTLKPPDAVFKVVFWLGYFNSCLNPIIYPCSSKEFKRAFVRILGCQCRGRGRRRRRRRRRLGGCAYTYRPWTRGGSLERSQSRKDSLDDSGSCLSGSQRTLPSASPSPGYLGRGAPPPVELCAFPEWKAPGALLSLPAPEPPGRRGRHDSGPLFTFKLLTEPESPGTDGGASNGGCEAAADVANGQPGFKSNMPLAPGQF
Method: as §1, §2
α1b Human Adrenergic Receptor: The entire coding region of α1b (1563 bp), including 200 base pairs of 5′ untranslated sequence (5′ UT) and 600 bp of 3′ untranslated sequence (3′ UT), was cloned into the EcoRI site of pCEXV-3 eukaryotic expression vector. The construct involved ligating the full-length EcoRI brainstem cDNA fragment from λ ZapII into the expression vector. Stable cell lines were selected as described above. Membranes were harvested and assayed for their ability to bind [^3H]prazosin as described below (see Radioligand Binding assays). The cell line used herein was designated L-α1B and was deposited with the American Type Culture Collection, 12301 Parklawn Drive, Rockville, Md. 20852, U.S.A. under the provisions of the Budapest Treaty for the International Recognition of the Deposit of Microorganisms for the Purposes of Patent Procedure. The cell line L-α1B was accorded ATCC Accession No. CR 11139, on Sep. 29, 1992.
as §3

Question: How did the Ki [1] turn out when O=C1CC2(CCCC2)CC(=O)N1[C@H](Cc1ccccc1)CN1CCN(c2cc(F)c(F)cc2F)CC1 [Compound 17, 8-{(1R)-1-Benzyl-2-[4-(2,4,5-trifluorophenyl)piperazino]ethyl}-8-azaspiro[4.5]decane-7,9-dione] was run?
Answer: 10000 nM

Question: And the Ki [2]?
Answer: 79.4 nM

Question: What does the source list for COc1ccccc1N1CCN(CCN2C(=O)CC3(CCCC3)CC2=O)CC1 [BMY 7378, reference compound]?
Answer: reversal of the blood pressure effect by WAY 100635 ([3]; 5-HT1A-selective antagonist WAY 100635 1 mg/kg given after plateau): reversed; effect on systolic, diastolic and mean blood pressure ([3]; urethane-anesthetized rats, increasing i.v. doses at 10 min intervals): dose-dependent reduction

Question: Which results are given for O=C1CC2(CCCC2)CC(=O)N1[C@@H](CN1CCN(c2cc(F)c(F)cc2F)CC1)c1ccccc1 [Compound 16, 8-{(1R)-1-Phenyl-2-[4-(2,4,5-trifluorophenyl)piperazino]ethyl}-8-azaspiro[4.5]decane-7,9-dione]?
Answer: Ki [1]: 7940 nM; Ki [2]: 79.4 nM

Question: Which Ki [1] does the source give for C[C@@H](CN1CCN(c2cc(F)c(F)cc2F)CC1)N1C(=O)CC2(CCCC2)CC1=O [Compound 11, 8-{(1S)-2-[4-(2,4,5-Trifluorophenyl)piperazin-1-yl]-1-methylethyl}-8-azaspiro[4.5]decane-7,9-dione] here?
Answer: 12600 nM

Question: And the Ki [2]?
Answer: 126 nM

Question: For C[C@H](CN1CCN(c2cc(F)c(F)cc2F)CC1)N1C(=O)CC2(CCCC2)CC1=O [Compound 9, 8-{(1R)-2-[4-(2,4,5-Trifluorophenyl)piperazin-1-yl]-1-methylethyl}-8-azaspiro[4.5]decane-7,9-dione], which Ki [1] is on record?
Answer: 15800 nM

Question: What about the Ki [2] of the same compound?
Answer: 1.26 nM

Question: What does the source list for O=C1CC2(CCCC2)CC(=O)N1CCN1CCN(c2ccccc2F)CC1 [Compound 20, 8-{2-[4-(2-Fluorophenyl)piperazin-1-yl]ethyl}-8-azaspiro[4.5]decane-7,9-dione]?
Answer: Ki [1]: 631 nM; Ki [4]: 63.1 nM

From patent US6706716B2, “Compounds specific for the human α1d adrenergic receptor and uses thereof” (Synaptic Pharmaceutical Corporation, priority 1998, dated 2004)
